This assay concerns Plasmodium falciparum. The experiment in a line: GSK_TCMDC: Inhibition of Plasmodium falciparum 3D7 in whole erythrocytes, using parasite LDH activity as an index of growth. The class given is functional, organism-based. The conditions noted are these: Plasmodium falciparum, 3D7.
Consider `CS(=O)(=O)c1ccc(-c2cnc(N)c(-c3ccc(O)cc3)c2)cc1`, for which the XC50 turned out to be 1360 nM. `COc1ccc(-n2ccnc2SCC(=O)Nc2cc(C)ccc2C)c(OC)c1` displayed an XC50 of 205 nM. Next, `O=C(CNC(=O)c1ccc(O)cc1)Nc1ccc(-c2cccc(-c3nc4cc(C(F)(F)F)ccc4[nH]3)c2)cc1`: 859 nM; `CCN(C(=O)c1ccc(NC(=O)c2cccs2)cc1)c1nc2c(C)cccc2s1`: 850 nM; `COc1cccc(C2(C)CCN(CCCCNC(=O)c3ccc(NC(=O)c4ccc(Cl)cc4)cc3)CC2)c1`: 831 nM.

As to `CCOC(=O)c1cc(Cl)ccc1OCCCON1C(=N)N=C(N)NC1(C)C`, the XC50 amounted to 3.2 nM. `Cc1ccc(CNC(=O)[C@H](Cc2ccccc2)Nc2ccnc(NCC3CCCCC3)n2)cc1` came in with an XC50 of 1190 nM. Next, `O=[N+]([O-])c1ccc(-n2nc(-c3cccnc3)n(Cc3ccco3)c2=S)c(Cl)c1`: 200 nM. Next, `COc1cc2nc(N(C)Cc3cccc(I)c3)nc(N)c2cc1OC`: 863 nM; `CCc1ccc(C2CCN(CCCCNC(=O)c3ccc(NC(=O)c4ccc(Cl)cc4)cc3)CC2)c(OC)c1`: 785 nM.

Regarding `O=C(/C=C/c1ccc(Cl)c(Cl)c1)NCCCCCCN1CCN(C(=O)Nc2cc(F)cc(F)c2)CC1`, the XC50 came out at 1070 nM. Next, `c1ccc2c(NCCCCCCNc3ccnc4ccccc34)ccnc2c1`: 191 nM; `COc1ccc(Nc2nc(NCc3ccc(-n4ccnc4)cc3)cc(-c3ccc(OC)cc3)n2)cc1`: 827 nM. To `Cn1cc(C2CCN(CCCCNC(=O)c3sc(-c4ccc(C(F)(F)F)cc4)nc3CO)CC2)c2ccccc21` belongs 1060 nM. To `O=c1nc2[nH]c3ccccc3n2c(=O)[nH]1` belongs 174 nM; to `CC[C@H]1CN2CCc3cc(OC)c(OC)cc3[C@@H]2C[C@@H]1C[C@H]1NCCc2c1cc(OC)c(O)c2I`, 216 nM.

The compound `Nc1nc2c(ncn2OC[C@H](CO)OCP(=O)(O)O)c(=O)[nH]1` returned an XC50 of 341 nM. To `CC(C)NCc1ccc(-c2cccc(CN3CCC(c4ccccc4)CC3)c2)c(C(=O)NCC2CCCCC2)c1` belongs 847 nM; to `CC(C)(C)c1cc2cc(Nc3ccnc4cc(-c5nccs5)ccc34)ccc2[nH]1`, 441 nM.

Regarding `CCOC(=O)C(C(C)=O)C(c1ccccc1)C(C(C)=O)C(=O)OCC` (centres undefined), the XC50 is 748 nM. Take `CCCCc1ccc(CCNCCCCCCNCCc2ccc(O)c(O)c2)cc1`: the XC50 stood at 1070 nM. To `COc1cc(C(=O)N2CCOC(CCN3CCc4c(c5ccccc5n4C)C3)(c3ccc(Cl)c(Cl)c3)C2)cc(OC)c1OC` (centres undefined) belongs 357 nM; to `Cc1ccc(C(=O)NC2CC2)cc1-c1ccc2c(cnn2S(=O)(=O)c2ccc(F)cc2)c1`, 289 nM; to `O=C(Nc1cccc(N2CCC(NCc3cnn(-c4cccc(F)c4)c3)CC2)c1)c1ccncc1`, 1390 nM. `COc1cccc2cc(C(=O)N[C@@H](CC(C)C)C(=O)N[C@H](C=NN3CC(=O)NC3=O)CC(C)C)oc12`: the XC50 was determined as 920 nM. Next, `NC1=NC(c2ccccc2)(c2ccccc2)C(=O)N1C1CCCCC1`: 661 nM; `CC(C)C1=C[C@H]2C[C@]3(C4OCCO4)[C@@H]4CC[C@@H](C)[C@H]4C[C@@]2(C(=O)OCC2COCO2)[C@]13C(=O)OC(c1ccccc1)c1ccccc1` (some centres undefined): 855 nM. For `Cc1ccc(C)c(Cn2ccc3nc(N)nc(N)c32)c1`, the XC50 turned out to be 301 nM.

As to `Cc1cccc2nc(-c3ccc(-c4ccc(NC(=O)NCc5cccc(F)c5)cc4)s3)[nH]c12`, the XC50 was 887 nM. To `Cc1[nH]cnc1-c1cccc(NC(=O)c2cc3ccccc3s2)c1` belongs 210 nM; to `O=C(Nc1cccnc1)c1cc(-c2cccnc2)nc2ccc(Br)cc12`, 640 nM.

Regarding `Oc1ccc(CN2CCC(NCc3cccc(C(F)(F)F)c3)CC2)cc1`, the XC50 was found to be 685 nM. The compound `O=c1cc(NCCCNCc2ccc(Cl)c(Cl)c2)[nH]c2ccc(Oc3ccccc3)cc12` yielded an XC50 of 850 nM.

`O=c1ccc2ccc(F)cc2n1CCN1CCC(NCc2ccc(-c3ccccn3)s2)CC1` yielded an XC50 of 887 nM.

The record behind these values is ChEMBL document CHEMBL1157539, “Thousands of chemical starting points for antimalarial lead identification” (Nature, 2010).
